Our source for the plasma concentrations values is patent US20030165954A1, “Cancer profiles” (Third Wave Technologies, Inc., priority 2002, published 2003).

For this series the following is noted: mouse, in vivo, iv.

As to `O=c1[nH]cc(F)c(=O)[nH]1` [5FU, 5-fluorouracil], the plasma concentrations entry is “did not reach the levels in nude mice that they do in patients receiving clinical doses”. With `CN(Cc1cnc2nc(N)nc(N)c2n1)c1ccc(C(=O)N[C@@H](CCC(=O)O)C(=O)O)cc1` [MTX, methotrexate], the plasma concentrations entry is on record as “did not reach the levels in nude mice that they do in patients receiving clinical doses”.
